Measurements from patent US20200069648A1, “HALOALLYLAMINE PYRAZOLE DERIVATIVE INHIBITORS OF LYSYL OXIDASES AND USES THEREOF” (Pharmaxis Ltd., priority 2017, published 2020).
Counter-ions that a name gives are not always drawn.

System: CCl4 induced liver fibrosis
Experiment: CCl4 induced liver fibrosis model
Type: in vivo
Details: mice, CCl4 i.p. twice per week for 6 weeks; 0.1-100 mg/Kg; compared with vehicle-treated group
Procedure: An analysis of the use of LOXL2 inhibitors to treat inflammatory/fibrotic diseases is performed through the use of a CCl4 induced liver fibrosis model. Liver injury is frequently followed by complete parenchymal regeneration due to regenerative potency of hepatocytes. Continuous liver injury due to the administration of CCl4 leads to extracellular matrix accumulation, accompanied by recurrent hepatocyte necrosis, inflammation, and regenerative processes, causing liver fibrosis and consequently liver cirrhosis (see Natsume, M., et al., Attenuated liver fibrosis and depressed serum albumin levels in carbon tetrachloride-treated IL-6-deficient mice. J. Leukoc. Biol., 1999, 66, 601-608 also See Yao, Q, Y., et al. Inhibition by curcumin of multiple sites of the transforming growth factor-beta1 signalling pathway ameliorates the progression of liver fibrosis induced by carbon tetrachloride in rats. BMC Complement Altern Med. 2012 Sep. 16; 12(1):156.).
Mice are injected intraperitoneally with CCl4 (i.p.) 1 ml/kg 25% CCl4 in olive oil, twice per week for a total period of 6 weeks. Compound 15 is given 0.1-100 mg/Kg throughout the period of the experimental procedure or only 3 weeks after CCl4 administration and then throughout the entire study.

Cc1nn(C/C(F)=C/CN)c(C)c1Cc1ccc(S(=O)(=O)N(C)C)c(Cl)c1 [Compound 15, (Z)-4-((1-(4-amino-2-fluorobut-2-en-1-yl)-3,5-dimethyl-1H-pyrazol-4-yl)methyl)-2-chloro-N,N-dimethylbenzenesulfonamide hydrochloride]
reduction in liver fibrosis by liver sirius red staining with quantification: up to 50%
